Laboratory results taken from patent publication US11827616B2, “Heterocyclic compounds as pesticides” (Discovery Purchaser Corporation, priority 2018, dated 2023).

Tests used:
Type in all cases: in vivo
Meloidogyne incognita = Meloidogyne incognita test; conditions: application rate 20 ppm; after 14 days
Description: Meloidogyne incognita Test
Solvent: 125.0 parts by weight of acetone
To produce a suitable active compound formulation, 1 part by weight of active compound is mixed with the stated amount of solvent and the concentrate is diluted to the desired concentration with water.
Vessels are filled with sand, active compound solution, an egg/larvae suspension of the southern root-knot nematode (Meloidogyne incognita) and lettuce seeds. The lettuce seeds germinate and the plants develop. The galls develop on the roots.
After 14 days, the nematicidal efficacy in % is determined by the formation of galls. 100% means that no galls were found; 0% means that the number of galls on the treated plants corresponds to the untreated control.

Musca domestica = Musca domestica test; conditions: application rate 100 ppm; adult houseflies; after 2 days
Description: (§1) Solvent: dimethyl sulfoxide
To produce a suitable active compound formulation, 10 mg of active compound are mixed with 0.5 ml of dimethyl sulfoxide, and the concentrate is diluted with water to the desired concentration.
Vessels containing a sponge treated with sugar solution and the desired concentration of active compound formulation are populated with 10 adult houseflies (Musca domestica).
After 2 days, the kill in % is determined. 100% means that all of the flies have been killed; 0% means that none of the flies have been killed.

Lucilia cuprina = Lucilia cuprina test; conditions: application rate 100 ppm; L1 larvae; after 2 days
How it was run: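 About 20 first-instar larvae were placed in vessels of minced horsemeat with compound at the desired concentration. Compound was dissolved in DMSO and diluted in water. Percent kill scored after 2 days.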

Ctenocephalides felis [1] = experiment: Ctenocephalides felis oral test; conditions: application rate 100 ppm in citrated cattle blood; after 2 days
Description: Ctenocephalides felis—Oral Test
as §1
To produce a suitable active compound formulation, 10 mg of active compound are mixed with 0.5 ml of dimethyl sulfoxide. Dilution with citrated cattle blood gives the desired concentration.
About 20 unfed adult cat fleas (Ctenocephalides felis) are placed into a chamber which is closed at the top and bottom with gauze. A metal cylinder whose bottom end is closed with parafilm is placed onto the chamber. The cylinder contains the blood/active compound formulation, which can be imbibed by the fleas through the parafilm membrane.
After 2 days, the kill in % is determined. 100% means that all of the fleas have been killed; 0% means that none of the fleas have been killed.

Boophilus microplus = Boophilus microplus injection test; conditions: application rate 20 μg/animal, after 7 days
How it was run: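 Compound dissolved in DMSO; 1 μl injected into the abdomen of engorged adult female ticks, five per group, kept in climate-controlled room. Efficacy scored after 7 days from fertile egg laying (100% = no fertile eggs; 0% = all fertile), with unclear eggs held ~42 days until hatching.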

Phaedon cochleariae = Phaedon cochleariae spray test; conditions: application rate 500 g/ha, after 7 days
How it was run: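 Chinese cabbage leaf discs sprayed with compound formulated in acetone/DMF and water with 1000 ppm emulsifier, then infested with mustard beetle larvae once dry. Percent larval kill scored after 7 days (100% = all dead, 0% = none).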

Spodoptera frugiperda = Spodoptera frugiperda spray test; conditions: application rate 500 g/ha, after 7 days
How it was run: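 Maize leaf discs sprayed with compound formulated in acetone/dimethylformamide and diluted in water with 1000 ppm alkylaryl polyglycol ether emulsifier. Once dry, discs are infested with fall armyworm caterpillars. Efficacy in % read after 7 days: 100% all caterpillars killed, 0% none killed.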

Rhipicephalus sanguineus = Rhipicephalus sanguineus in vitro contact test with adult brown dog ticks; conditions: application rate 5 μg/cm^2 (=500 g/ha); after 48 h
How it was run: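 Glass tubes coated with compound in acetone (900 ppm solution giving 5 μg/cm^2), then 5-10 adult ticks held in the dark at room temperature and ambient humidity. At 48 h, ticks placed on a 45-50° C. hotplate for up to 5 min; motionless or uncoordinated ones scored dead/moribund, giving % efficacy.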

Ctenocephalides felis [2] = experiment: Ctenocephalides felis in vitro contact test with adult cat fleas; conditions: application rate 5 μg/cm^2 (=500 g/ha); after 48 h
How it was run: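 Glass tubes coated with acetone solutions of compound (900 ppm giving 5 μg/cm^2), dried, then held 5-10 adult cat fleas at room temperature and ambient humidity. After 48 h, dead or moribund fleas were scored; efficacy expressed as percent affected.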

Nilaparvata lugens = Nilaparvata lugens test; conditions: application rate 500 g/ha; after 4 days
Description: (§2) Solvent: 78.0 parts by weight of acetone • • 1.5 parts by weight of dimethylformamide
(§3) Emulsifier: alkylaryl polyglycol ether
(§4) To produce a suitable active compound formulation, 1 part by weight of active compound is dissolved with the specified parts by weight of solvent and made up to the desired concentration with water containing an emulsifier concentration of 1000 ppm. To produce further test concentrations, the formulation is diluted with emulsifier-containing water.
Rice plants (Oryza sativa) are sprayed with the active compound formulation of the desired concentration and then infected with the brown planthopper (Nilaparvata lugens).
After 4 days, the efficacy in % is determined. 100% means that all of the planthoppers have been killed; 0% means that none of the planthoppers have been killed.

[3] = test system: Aedes aegypti strain MONHEIM; experiment: Aedes test (AEDSAE surface treatment); conditions: 24 hours after contact, read-out: efficacy (mortality in %)
Description: Aedes Test (AEDSAE Surface Treatment)
(§5) Solvent: acetone+2000 ppm rapeseed oil methyl ester (RME)
To produce an appropriate active compound formulation, the active compound is dissolved in the solvent (2 mg/ml). The active compound formulation is pipetted onto a glazed tile and, after it has dried off, adult mosquitoes of the species Aedes aegypti strain MONHEIM are placed onto the treated tile. The exposure time is 30 minutes. 24 hours after contact with the treated surface, mortality in % is determined. 100% means that all mosquitoes have been killed; 0% means that none of the mosquitoes have been killed.

[4] = test system: Anopheles funestus strain FUMOZ-R; experiment: Anopheles test (ANPHFU surface treatment); conditions: 24 hours after contact, read-out: efficacy (mortality in %)
Description: Anopheles Test (ANPHFU Surface Treatment)
as §5
To produce an appropriate active compound formulation, the active compound is dissolved in the solvent (2 mg/ml). The active compound formulation is pipetted onto a glazed tile and, after it has dried off, adult mosquitoes of the species Anopheles funestus strain FUMOZ-R (Hunt et al., Med Vet Entomol. 2005 Sep.; 19 (3):271-5) are placed onto the treated tile. The exposure time is 30 minutes.
24 hours after contact with the treated surface, mortality in % is determined. 100% means that all mosquitoes have been killed; 0% means that none of the mosquitoes have been killed.

[5] = test system: Anopheles gambiae strain RSPH (homozygot kdr); experiment: Anopheles test (ANPHGB surface treatment); conditions: 24 hours after contact, read-out: efficacy (mortality in %)
Nezara viridula = Nezara viridula spray test; conditions: application rate 500 g/ha; after 4 days
Description: Nezara viridula—Spray Test
as §2, §3, §4
Barley plants (Hordeum vulgare) infected with larvae of the Southern green shield bug (Nezara viridula) are srayed with an active compound formulation of the desired concentration.
After 4 days, the efficacy in % is determined. 100% means that all of the shield bugs have been killed; 0% means that none of the shield bugs have been killed.

Tetranychus urticae = Tetranychus urticae spray test, OP-resistant; conditions: application rate 500 g/ha; after 6 days
How it was run: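 Bean leaf discs carrying all stages of OP-resistant Tetranychus urticae were sprayed with compound in acetone/dimethylformamide diluted in water containing alkylaryl polyglycol ether emulsifier (1000 ppm). Mortality scored after 6 days as % efficacy (100% = all mites killed).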

Myzus persicae = Myzus persicae spray test; conditions: application rate 500 g/ha; after 5 days
Description: Myzus persicae—Spray Test
Solvent: 78 parts by weight of acetone • • 1.5 parts by weight of dimethylformamide
as §3, §4
Discs of Chinese cabbage leaves (Brassica pekinensis) infested by all stages of the green peach aphid (Myzus persicae) are sprayed with an active compound formulation of the desired concentration.
After 5 days, the efficacy in % is determined. 100% means that all the aphids have been killed; 0% means that no aphids have been killed.

[6] = application rate 20 mg/m^2, exposure 30 minutes
[7] = application rate 100 mg/m^2, exposure 30 minutes

Compound | efficacy (kill in %) (Lucilia cuprina) [%] | efficacy (kill in %) (Ctenocephalides felis [1]) [%] | efficacy (laying of fertile eggs) (Boophilus microplus) [%] | efficacy (Phaedon cochleariae) [%] | efficacy (Spodoptera frugiperda) [%] | efficacy (ticks dead or moribund) (Rhipicephalus sanguineus) [%] | efficacy (fleas dead or moribund) (Ctenocephalides felis [2]) [%] | efficacy (Nilaparvata lugens) [%] | efficacy (Tetranychus urticae) [%] | efficacy (Myzus persicae) [%] | further results
CC(=O)N1CCC(Oc2ccc(COc3ccc(Cl)c4ccccc34)cn2)C1 (stereo not shown) [Example 4] | 100 | 100 | 100 | 100 | 100 |  |  |  |  |  | nematicidal efficacy (formation of galls) (Meloidogyne incognita): 90%; efficacy (kill in %) (Musca domestica): 80%
CON(C)CCOc1cnc(COc2ccc3oc4ccccc4c3c2)c(F)c1 [Example 20] | 100 | 95 | 100 | 100 | 100 | 100 | 100 | 100 |  |  | 
CON(C)CCOc1cnc(COc2cccc3c(Cl)c(Cl)ccc23)c(F)c1 [Example 22, 2-[(6-{[(5,6-dichloro-1-naphthyl)oxy]methyl}-5-fluoropyridin-3-yl)oxy]-N-methoxy-N-methylethanamine] | 100 | 90 |  |  |  | 100 | 100 | 90 |  |  | mortality at 20 mg/m2 [3, 6]: 80 to 100%; mortality at 100 mg/m2 [3, 7]: 80 to 100%; mortality at 20 mg/m2 [4, 6]: 80 to 100%; mortality at 100 mg/m2 [4, 7]: 80 to 100%; mortality at 20 mg/m2 [5, 6]: 80 to 100%; mortality at 100 mg/m2 [5, 7]: 80 to 100%; pest or weed control at 0.02 mg (Boophilus microplus; Rhipicephalus microplus, 168 h, read-out: efficacy (laying of fertile eggs)): 100%; pest or weed control at 500 g/ha (Phaedon cochleariae; Phaedon cochleariae, 168 h, read-out: efficacy): 100%; pest or weed control at 500 g/ha (Spodoptera frugiperda; Spodoptera frugiperda, 168 h, read-out: efficacy): 100%
CON(C)CCOc1cnc(COc2ccc(F)c(-c3cccc(OC(F)(F)F)c3)c2)c(F)c1 [Example 50] |  |  |  | 100 | 100 |  |  | 100 | 100 | 90 | efficacy (Nezara viridula): 100%
CON(C)CCOc1cnc(COc2cccc(-c3cccc(OC(F)(F)F)c3)c2)c(F)c1 [Example 53] | 100 |  | 100 | 100 | 100 | 100 | 100 | 100 | 100 | 90 | 
CON(C)CCOc1cnc(COc2ccc(F)c(-c3cccc(OC(F)(F)F)c3)c2)c(C)c1 [Example 59] | 100 |  | 100 | 83 | 100 | 100 | 100 |  | 100 | 90 | 
